In paper PMC7004250 (Cell chemical biology, 2019):

What was measured:
EZH2 in HeLa cells [1] = assay: Jess ProteinSimple analysis of EZH2 levels; assay type: cell-based, human; conditions: 5 μM, 4, 24 and 48 hrs, decrease stated at 24 hrs
EED in HeLa cells [2] = biological target: T1, EED in HeLa cells (Homo sapiens, UniProt O75530); assay: Jess ProteinSimple analysis of EED levels; assay type: cell-based; conditions: 5 μM, 4, 24 and 48 hrs, decrease stated at 24 hrs
[3] = biological target: 6XHis-tagged recombinant EED (residues 1 – 441) (Homo sapiens, UniProt O75530); assay: TR-FRET EED binding assay; conditions: TR-FRET EED IC50 relative to EED226
EED = conditions: read-out: reported IC50 (EED); ref Huang et al., 2017; cited from earlier work
DB cell viability = assay type: cell-based; conditions: human, DB cells
H3K27me3 in HeLa cells = assay: Western blot H3K27me3 levels in HeLa cells; assay type: cell-based, human; conditions: for H3K27me3 reduced: 10 μM, after 72 hours
EZH2 in HeLa cells [4] = assay: Western blot EZH2 degradation in HeLa cells; assay type: cell-based, human; conditions: for EZH2 protein levels: 10 μM, 24 to 72 hrs
EED in HeLa cells [5] = biological target: T1, EED in HeLa cells; assay: Western blot EED degradation in HeLa cells; assay type: cell-based; conditions: for EED protein levels: 10 μM, 24 to 72 hrs
[6] = system: SUZ12 in DB cells (EZH2^Y641N); assay: Western blot SUZ12 degradation in DB cells; assay type: cell-based, human
DB cells = assay: DB cell proliferation; assay type: cell-based, human; conditions: up to 12 days, 3 μM (Figure 6A)
Pfeiffer cells = assay: Pfeiffer cell proliferation; assay type: cell-based, human; conditions: up to 12 days, 3 μM (Figure 6B)
[7] = system: EZH2/EZH2^Y641N in DB cells; assay: Western blot EZH2 degradation in DB cells; assay type: cell-based, human
[8] = biological target: EED in DB cells (EZH2^Y641N) (Homo sapiens, UniProt O75530); assay: Western blot EED degradation in DB cells; assay type: cell-based
SUZ12 in HeLa cells [9] = assay: Western blot SUZ12 degradation in HeLa cells; assay type: cell-based, human
[10] = system: H3K27me3 in DB cells (EZH2^Y641N); assay: Western blot H3K27me3 levels in DB cells; assay type: cell-based, human; conditions: 10 μM, after 72 hours
[11] = biological target: PRC2 subunits in Pfeiffer cells (EZH2^A677G) (Homo sapiens, UniProt O75530); assay: PRC2 degradation in Pfeiffer cells; assay type: cell-based; conditions: Figure S6
HeLa cells = assay: Cellular toxicity in HeLa cells; assay type: cell-based, human; conditions: concentrations up to 30 μM
SUZ12 in HeLa cells [12] = assay: Global proteomics; assay type: cell-based, human; conditions: 10 μM, 24 hrs, TMT proteomics

Sequence of 6XHis-tagged recombinant EED (residues 1 – 441) (O75530 whole entry, the tested form may be a part): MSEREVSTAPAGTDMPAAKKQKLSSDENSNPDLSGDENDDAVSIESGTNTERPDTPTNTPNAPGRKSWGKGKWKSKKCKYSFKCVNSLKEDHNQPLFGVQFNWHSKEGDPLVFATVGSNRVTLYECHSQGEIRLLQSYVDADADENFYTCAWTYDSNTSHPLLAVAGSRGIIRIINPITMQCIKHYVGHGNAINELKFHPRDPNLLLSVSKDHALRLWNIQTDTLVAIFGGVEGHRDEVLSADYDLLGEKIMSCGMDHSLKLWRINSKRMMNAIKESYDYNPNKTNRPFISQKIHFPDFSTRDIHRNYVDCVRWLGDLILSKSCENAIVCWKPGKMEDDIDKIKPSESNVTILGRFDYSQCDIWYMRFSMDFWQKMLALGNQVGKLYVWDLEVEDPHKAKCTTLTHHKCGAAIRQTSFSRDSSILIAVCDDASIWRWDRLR
T1 sequence (O75530 whole entry, the tested form may be a part): as above
Sequence of EED in DB cells (EZH2^Y641N) (O75530 2-441 limits assumed, stated change not applied): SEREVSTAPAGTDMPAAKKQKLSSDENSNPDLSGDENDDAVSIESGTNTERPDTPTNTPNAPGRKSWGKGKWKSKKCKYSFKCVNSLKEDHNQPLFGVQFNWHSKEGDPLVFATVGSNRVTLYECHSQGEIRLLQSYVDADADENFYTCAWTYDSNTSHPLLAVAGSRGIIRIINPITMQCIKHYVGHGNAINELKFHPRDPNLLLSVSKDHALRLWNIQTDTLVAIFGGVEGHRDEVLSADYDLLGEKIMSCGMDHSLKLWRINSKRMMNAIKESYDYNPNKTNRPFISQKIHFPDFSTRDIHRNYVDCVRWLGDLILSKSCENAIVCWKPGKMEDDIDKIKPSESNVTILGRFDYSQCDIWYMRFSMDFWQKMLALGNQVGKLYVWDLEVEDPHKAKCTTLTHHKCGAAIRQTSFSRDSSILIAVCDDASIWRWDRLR
Sequence of PRC2 subunits in Pfeiffer cells (EZH2^A677G) (O75530 whole entry, stated change not applied): as the sequence (O75530 whole entry, the tested form may be a part) above
Sequence of PRC2 subunits in Pfeiffer cells (EZH2^A677G) (Q15910 whole entry A677G partner): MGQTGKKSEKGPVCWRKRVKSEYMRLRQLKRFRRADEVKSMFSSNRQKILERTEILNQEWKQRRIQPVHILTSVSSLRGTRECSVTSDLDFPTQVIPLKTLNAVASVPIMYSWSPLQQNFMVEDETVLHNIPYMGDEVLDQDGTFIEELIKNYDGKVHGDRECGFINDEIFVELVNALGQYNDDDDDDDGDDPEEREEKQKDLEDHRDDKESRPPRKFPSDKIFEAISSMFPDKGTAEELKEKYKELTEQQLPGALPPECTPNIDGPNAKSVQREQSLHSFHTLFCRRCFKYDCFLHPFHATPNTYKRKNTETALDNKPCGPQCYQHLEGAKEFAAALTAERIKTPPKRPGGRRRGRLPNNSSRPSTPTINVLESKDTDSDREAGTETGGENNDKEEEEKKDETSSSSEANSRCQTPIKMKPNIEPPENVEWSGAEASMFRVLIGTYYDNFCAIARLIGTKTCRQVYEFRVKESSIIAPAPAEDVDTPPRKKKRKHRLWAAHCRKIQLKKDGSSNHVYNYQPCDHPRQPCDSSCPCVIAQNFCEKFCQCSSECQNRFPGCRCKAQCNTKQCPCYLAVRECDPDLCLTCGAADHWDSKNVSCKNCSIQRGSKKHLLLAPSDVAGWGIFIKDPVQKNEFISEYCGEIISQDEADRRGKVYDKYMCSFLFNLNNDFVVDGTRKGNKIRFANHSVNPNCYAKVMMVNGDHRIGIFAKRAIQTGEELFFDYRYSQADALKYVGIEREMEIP
Sequence of PRC2 subunits in Pfeiffer cells (EZH2^A677G) (Q15022 whole entry partner): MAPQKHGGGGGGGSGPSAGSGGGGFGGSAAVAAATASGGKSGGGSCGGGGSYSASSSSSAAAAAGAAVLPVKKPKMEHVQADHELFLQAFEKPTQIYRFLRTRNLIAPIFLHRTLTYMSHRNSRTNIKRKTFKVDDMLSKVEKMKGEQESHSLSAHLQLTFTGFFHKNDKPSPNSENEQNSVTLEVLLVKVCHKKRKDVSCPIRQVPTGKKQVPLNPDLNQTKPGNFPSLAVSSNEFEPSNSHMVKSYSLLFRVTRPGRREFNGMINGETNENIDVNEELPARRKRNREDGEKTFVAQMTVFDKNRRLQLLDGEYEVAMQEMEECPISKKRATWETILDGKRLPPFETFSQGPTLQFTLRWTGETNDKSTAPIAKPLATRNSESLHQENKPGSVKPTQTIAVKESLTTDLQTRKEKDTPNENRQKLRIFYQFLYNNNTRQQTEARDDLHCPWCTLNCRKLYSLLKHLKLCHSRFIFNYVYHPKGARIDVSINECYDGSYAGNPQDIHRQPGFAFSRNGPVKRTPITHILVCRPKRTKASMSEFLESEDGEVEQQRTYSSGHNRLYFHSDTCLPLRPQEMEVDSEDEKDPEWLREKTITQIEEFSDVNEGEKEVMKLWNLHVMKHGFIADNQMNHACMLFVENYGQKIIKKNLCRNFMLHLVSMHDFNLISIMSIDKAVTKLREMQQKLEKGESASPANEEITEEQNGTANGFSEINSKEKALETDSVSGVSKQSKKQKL

Cc1ncsc1-c1ccc(CNC(=O)[C@@H]2C[C@@H](O)CN2C(=O)[C@@H](NC(=O)CCOCCOCCOCCOCCNC(=O)c2ccc(-c3cnc(NCc4ccco4)n4cnnc34)cc2)C(C)(C)C)cc1 [UNC6847, (2S,4R)-1-((S)-19-(tert-butyl)-1-(4-(5-((furan-2-ylmethyl)amino)-[1,2,4]triazolo[4,3-c]pyrimidin-8-yl)phenyl)-1,17-dioxo-5,8,11,14-tetraoxa-2,18-diazaicosan-20-oyl)-4-hydroxy-N-(4-(4-methylthiazol-5-yl)benzyl)pyrrolidine-2-carboxamide]
EZH2 levels (Jess) (EZH2 in HeLa cells [1]): unable to alter the levels
EED levels (Jess) (EED in HeLa cells [2]): unable to alter the levels
loss in potency compared to EED226 [3]: 5 fold

CS(=O)(=O)c1ccc(-c2cnc(NCc3ccco3)n3cnnc23)cc1 [EED226, reference compound]
IC50 (EED): 22 nM
viability at 12 days, 3 μM (DB cell viability): 67%
H3K27me3 reduced (H3K27me3 in HeLa cells): 52%
EZH2 protein levels (EZH2 in HeLa cells [4]): had no effect
EED protein levels (EED in HeLa cells [5]; HeLa cells): had no effect

Cc1ncsc1-c1ccc(CNC(=O)[C@@H]2C[C@@H](O)CN2C(=O)[C@@H](NC(=O)COCCOCCOCCNC(=O)c2ccc(-c3cnc(NCc4ccco4)n4cnnc34)cc2)C(C)(C)C)cc1 [UNC6846, (2S,4R)-1-((S)-15-(tert-butyl)-1-(4-(5-((furan-2-ylmethyl)amino)-[1,2,4]triazolo[4,3-c]pyrimidin-8-yl)phenyl)-1,13-dioxo-5,8,11-trioxa-2,14-diazahexadecan-16-oyl)-4-hydroxy-N-(4-(4-methylthiazol-5-yl)benzyl)pyrrolidine-2-carboxamide]
EZH2 levels (Jess) (EZH2 in HeLa cells [1]): unable to alter the levels
EED levels (Jess) (EED in HeLa cells [2]): unable to alter the levels
loss in potency compared to EED226 [3]: 14 fold

Cc1ncsc1-c1ccc(CNC(=O)[C@@H]2C[C@H](O)CN2C(=O)[C@@H](NC(=O)CCCNC(=O)c2ccc(-c3cnc(NCc4ccco4)n4cnnc34)cc2)C(C)(C)C)cc1 [UNC7043, (2S,4S)-1-((S)-2-(4-(4-(5-((furan-2-ylmethyl)amino)-[1,2,4]triazolo[4,3-c]pyrimidin-8-yl)benzamido)butanamido)-3,3-dimethylbutanoyl)-4-hydroxy-N-(4-(4-methylthiazol-5-yl)benzyl)pyrrolidine-2-carboxamide]
SUZ12 levels (western blot) ([6]; DB cells, 10 μM for 24 hours): did not affect the levels
effect on cell proliferation (DB cells): had no effect on cell proliferation
effect on cell proliferation (Pfeiffer cells): had no effect on cell proliferation
EZH2 levels (western blot) ([7]; 10 μM for 24 hours): did not affect the levels
EED levels (western blot) ([8]; DB cells, 10 μM for 24 hours): did not affect the levels
SUZ12 degradation (western blot) (SUZ12 in HeLa cells [9]; 10 μM for 24 hrs): did not degrade
EZH2 degradation (western blot) (EZH2 in HeLa cells [4]; 10 μM for 24 hrs): did not degrade
EED degradation (western blot) (EED in HeLa cells [5]; HeLa cells, 10 μM for 24 hrs): did not degrade

Cc1ncsc1-c1ccc(CNC(=O)[C@@H]2C[C@@H](O)CN2C(=O)[C@@H](NC(=O)CCOCCOCCNC(=O)c2ccc(-c3cnc(NCc4ccco4)n4cnnc34)cc2)C(C)(C)C)cc1 [UNC6845, (2S,4R)-1-((S)-13-(tert-butyl)-1-(4-(5-((furan-2-ylmethyl)amino)-[1,2,4]triazolo[4,3-c]pyrimidin-8-yl)phenyl)-1,11-dioxo-5,8-dioxa-2,12-diazatetradecan-14-oyl)-4-hydroxy-N-(4-(4-methylthiazol-5-yl)benzyl)pyrrolidine-2-carboxamide]
EZH2 levels (Jess) (EZH2 in HeLa cells [1]): unable to alter the levels
EED levels (Jess) (EED in HeLa cells [2]): unable to alter the levels
loss in potency compared to EED226 [3]: 2 fold

Cc1ncsc1-c1ccc(CNC(=O)[C@@H]2C[C@@H](O)CN2C(=O)[C@@H](NC(=O)CCCNC(=O)c2ccc(-c3cnc(NCc4ccco4)n4cnnc34)cc2)C(C)(C)C)cc1 [UNC6852, (2S,4R)-1-((S)-2-(4-(4-(5-((furan-2-ylmethyl)amino)-[1,2,4]triazolo[4,3-c]pyrimidin-8-yl)benzamido)butanamido)-3,3-dimethylbutanoyl)-4-hydroxy-N-(4-(4-methylthiazol-5-yl)benzyl)pyrrolidine-2-carboxamide]
Dmax SUZ12 ([6]; DB cells): 82%
maximal degradation of SUZ12 in DB cells relative to HeLa cells ([6]; DB vs HeLa): 3.7 fold
EC50 ([6]; read-out: half maximal degradation concentration SUZ12, DB cells, 24 hours): 590 ± 170 nM
effect on cell proliferation (DB cells): robust anti-proliferative effects
EZH2 levels (Jess) (EZH2 in HeLa cells [1]): decrease in the levels
viability at 12 days, 3 μM (DB cell viability): 95%
effect on cell proliferation (Pfeiffer cells): robust anti-proliferative effects
H3K27me3 reduced (H3K27me3 in HeLa cells): 51%
H3K27me3 levels after 96 hours (H3K27me3 in HeLa cells; 96 hours of treatment): further decrease in H3K27me3 levels
loss of H3K27me3 [10]: 71%
EED levels (Jess) (EED in HeLa cells [2]): decrease in the levels
Dmax EZH2/EZH2^Y641N [7]: 96%
DC50 ([7]; read-out: DC50 EZH2/EZH2^Y641N, 24 hours): 670 ± 240 nM
loss in potency compared to EED226 [3]: 5.5 fold
Dmax ([8]; DB, read-out: Dmax EED): 94%
DC50 ([8]; read-out: DC50 EED, DB cells, 24 hours): 610 ± 180 nM
degradation of PRC2 subunits [11]: degradation of all three PRC2 subunits
Dmax SUZ12 (maximal degradation) (SUZ12 in HeLa cells [9]; western blot): 22%
cellular toxicity (HeLa cells): no cellular toxicity was observed
SUZ12 degradation (proteomics) (SUZ12 in HeLa cells [12]): 21%
SUZ12 log2 fold change (treated/DMSO treated) (SUZ12 in HeLa cells [12]): −0.34
EZH2 degradation (EZH2 in HeLa cells [4]; 5 μM, 24 hours, western blot): 76%
EZH2 protein levels (EZH2 in HeLa cells [4]): decrease in protein levels
Dmax EZH2 (maximal degradation) (EZH2 in HeLa cells [4]; % degradation at 30 μM after 24 hours): 75%
EED degradation (EED in HeLa cells [5]; HeLa cells, 5 μM, 24 hours, western blot): 80%
EED protein levels (EED in HeLa cells [5]; HeLa cells): decrease in protein levels
Dmax at 30 µM (EED in HeLa cells [5]; HeLa, read-out: Dmax EED (maximal degradation)): 92%

Cc1ncsc1-c1ccc(CNC(=O)[C@@H]2C[C@@H](O)CN2C(=O)[C@@H](NC(=O)CCCCNC(=O)c2ccc(-c3cnc(NCc4ccco4)n4cnnc34)cc2)C(C)(C)C)cc1 [UNC6853, (2S,4R)-1-((S)-2-(5-(4-(5-((furan-2-ylmethyl)amino)-[1,2,4]triazolo[4,3-c]pyrimidin-8-yl)benzamido)pentanamido)-3,3-dimethylbutanoyl)-4-hydroxy-N-(4-(4-methylthiazol-5-yl)benzyl)pyrrolidine-2-carboxamide]
EZH2 levels (Jess) (EZH2 in HeLa cells [1]): significant degradation was not observed
EED levels (Jess) (EED in HeLa cells [2]): significant degradation was not observed
loss in potency compared to EED226 [3]: 8 fold

Cc1ncsc1-c1ccc(CNC(=O)[C@@H]2C[C@@H](O)CN2C(=O)[C@@H](NC(=O)CCNC(=O)c2ccc(-c3cnc(NCc4ccco4)n4cnnc34)cc2)C(C)(C)C)cc1 [UNC6851, (2S,4R)-1-((S)-2-(3-(4-(5-((furan-2-ylmethyl)amino)-[1,2,4]triazolo[4,3-c]pyrimidin-8-yl)benzamido)propanamido)-3,3-dimethylbutanoyl)-4-hydroxy-N-(4-(4-methylthiazol-5-yl)benzyl)pyrrolidine-2-carboxamide]
EZH2 levels (Jess) (EZH2 in HeLa cells [1]): decrease in the levels
EED levels (Jess) (EED in HeLa cells [2]): decrease in the levels
loss in potency compared to EED226 [3]: 6 fold

CCCc1cc(C)[nH]c(=O)c1CNC(=O)c1cc(-c2ccc(N3CCN(C(C)C)CC3)nc2)cc2c1cnn2C(C)C [UNC1999, reference compound]
viability at 12 days, 3 μM (DB cell viability): 67%
H3K27me3 reduced (H3K27me3 in HeLa cells): 60%
EZH2 protein levels (EZH2 in HeLa cells [4]): had no effect
EED protein levels (EED in HeLa cells [5]; HeLa cells): had no effect
